Test systems include DU-145; HCC 2998; HCT-116; HL-60; Hs-578T; K562; MCF7; MDA-MB-231; MOLT-4; NCI-H460; OVCAR-5; OVCAR-8; PC-3; SK-OV-3; SN12C; SR; T47D; U-251; UO-31.
What all share (experiment): NCI tumour cell line growth inhibition, 48 h

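1) Cells in 96-well plates. 2) Compound, 48 h, 5 concentrations. 3) Linear interpolation between surrounding doses. 4) Unreached endpoint = highest concentration. GI50 = concentration required for 50% inhibition of growth.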 Calls of active or inactive are those of the source. Rule as the data show it: active = GI50 up to about 1.1 µM and inactive = higher.

`COC(=O)c1c(CC(Cc2ccc3c(c2)CCCC3)C(=O)O)ccc2c1CCCC2` (stereo not given): the GI50 was 39.6 µM (inactive) in the experiment on DU-145; 32.4 µM (inactive) in the experiment on HCC 2998; 17.9 µM (inactive) with HCT-116; 23 µM (inactive) with HL-60; 25.8 µM (inactive) in the experiment with Hs-578T; 34.7 µM (inactive) in the experiment on K562. Moreover, the GI50 is 31.6 µM (inactive) in the experiment with MCF7; 27.9 µM (inactive) with MDA-MB-231; 37.1 µM (inactive) in the experiment on MOLT-4; 21.9 µM (inactive) in the experiment with NCI-H460; 43.8 µM (inactive) with OVCAR-5; 36.2 µM (inactive) in the experiment with OVCAR-8. The GI50 in the experiment with PC-3 was 36.4 µM (inactive); in the experiment with SK-OV-3 it was 41 µM (inactive); in the experiment with SN12C, 36.9 µM (inactive); with SR, 30.5 µM (inactive); with T47D, 33.4 µM (inactive); in the experiment on U-251, 37.2 µM (inactive). For the same compound, the GI50 in the experiment with UO-31 is 25.8 µM (inactive).
On to `C=C1CC2(CCOc3ccc(Cl)cc32)OC1=O` (stereo not given), for which the GI50 in the experiment on DU-145 is 12.7 µM (inactive); in the experiment with HCC 2998, 22.5 µM (inactive); in the experiment on HCT-116, 1.63 µM (inactive); with HL-60, 1.93 µM (inactive); with Hs-578T, 0.979 µM (active); in the experiment with K562, 2.55 µM (inactive). Also, the GI50 is 0.598 µM (active) with MCF7; 6.44 µM (inactive) with MDA-MB-231; 0.805 µM (active) in the experiment with MOLT-4; 3.61 µM (inactive) in the experiment with NCI-H460; 10.6 µM (inactive) in the experiment with OVCAR-5; 4.59 µM (inactive) with OVCAR-8. The GI50 was 1.95 µM (inactive) in the experiment with PC-3; 13.1 µM (inactive) in the experiment with SK-OV-3; 7.69 µM (inactive) in the experiment with SN12C; 2.37 µM (inactive) with SR; 4.93 µM (inactive) in the experiment with T47D; 8.63 µM (inactive) in the experiment with U-251. The GI50 with UO-31 was 2.83 µM (inactive).
Regarding `O=C(O)c1c2c(cc3c1CC1(Cc4ccccc4C1)C3)CCC2`, the GI50 in the experiment with DU-145 is 66.5 µM (inactive); in the experiment with HCC 2998 it was > 100 µM (inactive); in the experiment on HCT-116 it was > 10 µM (inactive); in the experiment on HL-60, 41.4 µM (inactive); in the experiment on Hs-578T, 63.8 µM (inactive); in the experiment on K562, 59.3 µM (inactive). Further, the GI50 in the experiment with MCF7 was 96.2 µM (inactive); with MDA-MB-231 it was 95.7 µM (inactive); in the experiment on MOLT-4, 82.8 µM (inactive); in the experiment on NCI-H460, 25.9 µM (inactive); in the experiment with OVCAR-5, > 100 µM (inactive); with OVCAR-8, 63.1 µM (inactive). In addition, the GI50 in the experiment on PC-3 was > 100 µM (inactive); in the experiment with SK-OV-3 it was > 100 µM (inactive); in the experiment on SN12C it was 67.6 µM (inactive); in the experiment on SR, 52.8 µM (inactive); with T47D, 77.1 µM (inactive); with U-251, 42.6 µM (inactive). Moreover, the GI50 in the experiment with UO-31 was 30.3 µM (inactive).
With `CC(C)=CCC/C(C)=C/CC/C(C)=C/CC/C(C)=C/CC/C(C)=C/CC/C(C)=C/CC/C(C)=C/CC/C(C)=C/CC/C(C)=C/CO` [SOLANESOL], the GI50 in the experiment on DU-145 was > 100 µM (inactive); with HCC 2998 it was > 100 µM (inactive); in the experiment with HCT-116, > 100 µM (inactive); in the experiment with HL-60, 77.4 µM (inactive); with Hs-578T it was > 100 µM (inactive); in the experiment on K562, > 100 µM (inactive). For the same compound, the GI50 with MCF7 was 87.7 µM (inactive); in the experiment on MDA-MB-231 it was > 100 µM (inactive); with MOLT-4 it was > 100 µM (inactive); with NCI-H460, > 100 µM (inactive); in the experiment on OVCAR-5 it was > 100 µM (inactive); in the experiment on OVCAR-8 it was > 100 µM (inactive). The GI50 in the experiment on PC-3, with SK-OV-3, in the experiment with SN12C, in the experiment on SR, with T47D and with U-251 was > 100 µM (inactive) throughout. For the same compound, the GI50 in the experiment with UO-31 was > 100 µM (inactive).
`CCOC(=O)Oc1cc2c(c(OC)c1OC)-c1ccc(SC)c(=O)cc1C(NC(=O)C(F)(F)F)CC2` (stereo not given): the GI50 in the experiment with DU-145 is 0.00258 µM (active); with HCC 2998 it was 0.0435 µM (active); with HCT-116, < 0.001 µM (active); in the experiment on HL-60, < 0.001 µM (active); in the experiment with Hs-578T, < 0.001 µM (active); in the experiment on K562 it was < 0.001 µM (active). For the same compound, the GI50 with MCF7 was < 0.001 µM (active); with MDA-MB-231, 0.00172 µM (active); in the experiment on MOLT-4 it was 0.00117 µM (active); in the experiment on NCI-H460, 0.00199 µM (active); in the experiment with OVCAR-5, 0.1 µM (active); in the experiment with OVCAR-8, 0.0015 µM (active). For the same compound, the GI50 in the experiment on PC-3 is 0.026 µM (active); in the experiment on SK-OV-3, < 0.001 µM (active); in the experiment on SN12C, 0.00199 µM (active); in the experiment on SR it was 0.00128 µM (active); with T47D it was 8.97 µM (inactive); with U-251, 0.00145 µM (active). The GI50 in the experiment with UO-31 was 0.244 µM (active).
Turning to `O=C1CSC(c2cccc(Cl)c2)N1c1ccc(-n2c(-c3ccccc3)nc3ccccc3c2=O)cc1` (stereo not given), the GI50 with DU-145 was > 100 µM (inactive); in the experiment with HCC 2998 it was 43.7 µM (inactive); in the experiment with HCT-116, 53 µM (inactive); in the experiment with HL-60, > 100 µM (inactive); in the experiment with Hs-578T, 39.3 µM (inactive); in the experiment with K562, 51.6 µM (inactive). The GI50 is 30.3 µM (inactive) with MCF7; 21.1 µM (inactive) with MDA-MB-231; 5.47 µM (inactive) with MOLT-4; 39.1 µM (inactive) in the experiment on NCI-H460; > 100 µM (inactive) in the experiment on OVCAR-5; 79.8 µM (inactive) in the experiment with OVCAR-8. In addition, the GI50 was 51.3 µM (inactive) in the experiment on PC-3; 88.7 µM (inactive) in the experiment on SK-OV-3; > 100 µM (inactive) in the experiment on SN12C; 7.66 µM (inactive) in the experiment with SR; 10 µM (inactive) in the experiment on T47D; 29 µM (inactive) in the experiment with U-251. In addition, the GI50 in the experiment with UO-31 was 3.22 µM (inactive).
Take `C=CC(=O)N1C/C(=C\c2ccc(F)cc2)C(=O)/C(=C/c2ccc(F)cc2)C1`: the GI50 in the experiment on DU-145 is 1.67 µM (inactive); in the experiment with HCC 2998, 0.267 µM (active); in the experiment on HCT-116 it was 0.0557 µM (active); in the experiment on HL-60 it was 0.728 µM (active); in the experiment with Hs-578T it was 0.235 µM (active); in the experiment on K562, 0.185 µM (active). The GI50 in the experiment with MCF7 is 0.168 µM (active); with MDA-MB-231, 0.461 µM (active); in the experiment with MOLT-4 it was 0.207 µM (active); in the experiment with NCI-H460 it was 0.593 µM (active); in the experiment with OVCAR-5, 0.622 µM (active); with OVCAR-8, 0.28 µM (active). Moreover, the GI50 in the experiment on PC-3 was 0.215 µM (active); in the experiment on SK-OV-3 it was 0.711 µM (active); in the experiment with SN12C, 0.454 µM (active); with SR, 0.0491 µM (active); in the experiment on T47D, 4.57 µM (inactive); in the experiment on U-251, 0.188 µM (active). For the same compound, the GI50 in the experiment on UO-31 is 0.849 µM (active).
As for `CC(C)C(/C=C/c1ccccc1)=N\NC(=S)NN`, the GI50 was > 100 µM (inactive) in the experiment with DU-145; 99.1 µM (inactive) in the experiment on HCC 2998; 31.5 µM (inactive) with HCT-116; 19.4 µM (inactive) in the experiment with HL-60; 80.5 µM (inactive) in the experiment with Hs-578T; 24 µM (inactive) with K562. For the same compound, the GI50 in the experiment on MCF7 was 30.6 µM (inactive); in the experiment with MDA-MB-231, > 100 µM (inactive); in the experiment with MOLT-4, 12.7 µM (inactive); with NCI-H460 it was 40.6 µM (inactive); with OVCAR-5 it was > 100 µM (inactive); in the experiment on OVCAR-8, 45.2 µM (inactive). The GI50 in the experiment on PC-3 is 53.3 µM (inactive); in the experiment with SK-OV-3, > 94.4 µM (inactive); with SN12C it was > 100 µM (inactive); with SR it was 0.546 µM (active); with T47D, 47 µM (inactive); in the experiment with U-251 it was > 67.9 µM (inactive). Besides, the GI50 in the experiment with UO-31 was 32.3 µM (inactive).
For `C/C=C/[C@H]1O[C@@](O)([C@@H](C)[C@H](O)[C@H](C)[C@H]2OC(=O)/C(OC)=C/C(C)=C/[C@@H](C)[C@@H](O)[C@@H](CC)[C@@H](O)[C@H](C)C/C(C)=C/C=C/[C@@H]2OC)C[C@H](OC2CC(O)C(OC(N)=O)C(C)O2)[C@@H]1C` (stereo not given in full), the GI50 in the experiment on DU-145 is 0.914 µM (active); with HCC 2998, 0.0787 µM (active); with HCT-116, 0.017 µM (active); with HL-60, < 0.01 µM (active); with Hs-578T, 12.4 µM (inactive); in the experiment on K562 it was 0.024 µM (active). Further, the GI50 is 0.0293 µM (active) with MCF7; 0.678 µM (active) with MDA-MB-231; < 0.01 µM (active) in the experiment with MOLT-4; < 0.0111 µM (active) with NCI-H460; 11.9 µM (inactive) in the experiment on OVCAR-5; 0.0474 µM (active) in the experiment on OVCAR-8. Also, the GI50 in the experiment on PC-3 was < 0.01 µM (active); in the experiment with SK-OV-3, 12.8 µM (inactive); with SN12C, 5.65 µM (inactive); in the experiment on SR it was < 0.01 µM (active); in the experiment on T47D, 0.0333 µM (active); with U-251, < 0.0281 µM (active). In addition, the GI50 with UO-31 is 0.0479 µM (active).
Take `Cc1ccc(/N=N/C(=NNC(=O)c2ccc(C)cc2)c2ccc(N(C)C)cc2)cc1`: the GI50 in the experiment with DU-145 was 20.8 µM (inactive); with HCC 2998, 27.4 µM (inactive); with HCT-116 it was 24.2 µM (inactive); in the experiment with HL-60 it was 27.5 µM (inactive); in the experiment with Hs-578T it was 28.1 µM (inactive); in the experiment with K562, 24.9 µM (inactive). In addition, the GI50 is 20 µM (inactive) in the experiment on MCF7; 50.2 µM (inactive) with MDA-MB-231; 33 µM (inactive) with MOLT-4; 25.3 µM (inactive) in the experiment on NCI-H460; 51.8 µM (inactive) in the experiment on OVCAR-5; 31.8 µM (inactive) in the experiment on OVCAR-8. Moreover, the GI50 was 42.6 µM (inactive) in the experiment with PC-3; 23.7 µM (inactive) in the experiment with SK-OV-3; 23.2 µM (inactive) in the experiment with SN12C; 17.9 µM (inactive) in the experiment on SR; 71.3 µM (inactive) in the experiment on T47D; 34.4 µM (inactive) in the experiment with U-251. The GI50 in the experiment on UO-31 is 26.1 µM (inactive).

Values taken from ChEMBL document CHEMBL1201862, “PubChem BioAssay data set” (2004).
